Series [1] concerns the target T1, PvXyd3A (Paecilomyces variotii, UniProt A0A443HSR8).
T1 construct: gene C8Q69DRAFT_305813; native secreted enzyme purified from culture supernatant (Brewer's Spent Grain); 78 kDa; pI between 3 and 4; GH3; once misprinted PvXyd11A
T1 sequence (A0A443HSR8 28-800): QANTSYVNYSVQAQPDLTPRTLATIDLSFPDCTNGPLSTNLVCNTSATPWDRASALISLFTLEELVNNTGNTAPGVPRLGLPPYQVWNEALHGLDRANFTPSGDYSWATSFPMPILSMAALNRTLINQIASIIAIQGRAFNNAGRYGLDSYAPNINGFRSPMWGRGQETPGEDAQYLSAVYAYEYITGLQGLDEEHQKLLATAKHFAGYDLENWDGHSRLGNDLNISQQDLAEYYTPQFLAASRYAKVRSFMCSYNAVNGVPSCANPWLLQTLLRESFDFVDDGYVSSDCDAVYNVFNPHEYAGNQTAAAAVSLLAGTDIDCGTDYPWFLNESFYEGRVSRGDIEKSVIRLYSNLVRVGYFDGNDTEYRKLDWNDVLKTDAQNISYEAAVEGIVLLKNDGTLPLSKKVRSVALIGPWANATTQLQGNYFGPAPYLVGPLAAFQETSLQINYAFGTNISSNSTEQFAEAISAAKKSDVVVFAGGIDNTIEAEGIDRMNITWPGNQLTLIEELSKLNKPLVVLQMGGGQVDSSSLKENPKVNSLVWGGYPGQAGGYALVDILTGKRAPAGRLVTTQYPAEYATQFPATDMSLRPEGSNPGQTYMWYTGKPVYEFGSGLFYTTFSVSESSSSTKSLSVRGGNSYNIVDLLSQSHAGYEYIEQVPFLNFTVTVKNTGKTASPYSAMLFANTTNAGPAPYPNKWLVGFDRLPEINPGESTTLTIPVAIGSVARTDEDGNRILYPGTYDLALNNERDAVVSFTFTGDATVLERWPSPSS
The series is described as follows: pNP-X hydrolysis initial rates, Lineweaver-Burk. Format: biochemical. The settings on record: competitive; substrate pNP-X; xylose at 5, 20 and 50 mM; methods text misprints the enzyme as Xyn3A.

Substrate in series [2]: O=[N+]([O-])c1ccc(O[C@@H]2OC[C@@H](O)[C@H](O)[C@H]2O)cc1
The series is described as follows: purified protein. It counts as biochemical, Paecilomyces variotii. Particulars: standard assay pH 4 citrate-phosphate, 50 °C, 0.1-20 mM pNP-X, Table 4 prints 0.45 ± 0.06 mM.

On to `OC1OC[C@@H](O)[C@H](O)[C@H]1O` (some centres unmarked) [X1, xylose], for which, in series [1], the Ki (in general, the dissociation constant of the complex between target and ligand, obtained from inhibition or displacement) came out at 10.2 mM.

B1: PvXyd3A (Paecilomyces variotii) (protein)
chain: T1 sequence (A0A443HSR8 28-800)
notes: native secreted enzyme purified from culture supernatant (Brewer's Spent Grain); 78 kDa; pI between 3 and 4; GH3; once misprinted PvXyd11A
For B1, the Km (as a rule, the substrate concentration at which the rate is half of its maximum) in series [2] was determined as 480 ± 60 µM.

These data come from publication PMC8228849, “Characterization of the Highly Efficient Acid-Stable Xylanase and β-Xylosidase System from the Fungus Byssochlamys spectabilis ATHUM 8891 (Paecilomyces variotii ATHUM 8891)” (Journal of Fungi, 2021).
